# Data from publication PMC5389348 (Scientific Reports, 2017).
# Where two headings read alike, the source gives them in different places.
# How the values were obtained:
# [1] = biological target: T1, PDE10A1 (Homo sapiens, UniProt Q9Y233); test: PDE enzymatic profile; assay type: biochemical
# T1 construct: purchased Scottish Biochem (Glasgow, Scotland, UK)
# [2] = biological target: T2, PDE7B (Homo sapiens, UniProt Q9NP56); test: PDE enzymatic profile; assay type: biochemical
# T2 construct: purchased Scottish Biochem (Glasgow, Scotland, UK)
# T2 sequence (Q9NP56 whole entry): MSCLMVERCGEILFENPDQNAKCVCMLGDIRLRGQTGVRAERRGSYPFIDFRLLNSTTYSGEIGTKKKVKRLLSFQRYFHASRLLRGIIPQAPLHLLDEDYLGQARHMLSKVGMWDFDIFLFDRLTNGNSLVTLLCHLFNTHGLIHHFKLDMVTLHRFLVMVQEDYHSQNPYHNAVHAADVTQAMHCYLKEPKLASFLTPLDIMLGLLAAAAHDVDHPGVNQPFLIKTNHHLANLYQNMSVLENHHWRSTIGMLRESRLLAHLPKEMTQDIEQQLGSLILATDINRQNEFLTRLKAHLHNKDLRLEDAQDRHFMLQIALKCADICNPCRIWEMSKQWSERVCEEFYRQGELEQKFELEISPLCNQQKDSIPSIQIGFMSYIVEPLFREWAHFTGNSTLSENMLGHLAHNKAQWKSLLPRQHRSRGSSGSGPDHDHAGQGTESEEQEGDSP
# [3] = biological target: T3, PDE8A1 (Homo sapiens, UniProt O60658); test: PDE enzymatic profile; assay type: biochemical
# T3 construct: purchased Scottish Biochem (Glasgow, Scotland, UK)
# T3 sequence (O60658 whole entry): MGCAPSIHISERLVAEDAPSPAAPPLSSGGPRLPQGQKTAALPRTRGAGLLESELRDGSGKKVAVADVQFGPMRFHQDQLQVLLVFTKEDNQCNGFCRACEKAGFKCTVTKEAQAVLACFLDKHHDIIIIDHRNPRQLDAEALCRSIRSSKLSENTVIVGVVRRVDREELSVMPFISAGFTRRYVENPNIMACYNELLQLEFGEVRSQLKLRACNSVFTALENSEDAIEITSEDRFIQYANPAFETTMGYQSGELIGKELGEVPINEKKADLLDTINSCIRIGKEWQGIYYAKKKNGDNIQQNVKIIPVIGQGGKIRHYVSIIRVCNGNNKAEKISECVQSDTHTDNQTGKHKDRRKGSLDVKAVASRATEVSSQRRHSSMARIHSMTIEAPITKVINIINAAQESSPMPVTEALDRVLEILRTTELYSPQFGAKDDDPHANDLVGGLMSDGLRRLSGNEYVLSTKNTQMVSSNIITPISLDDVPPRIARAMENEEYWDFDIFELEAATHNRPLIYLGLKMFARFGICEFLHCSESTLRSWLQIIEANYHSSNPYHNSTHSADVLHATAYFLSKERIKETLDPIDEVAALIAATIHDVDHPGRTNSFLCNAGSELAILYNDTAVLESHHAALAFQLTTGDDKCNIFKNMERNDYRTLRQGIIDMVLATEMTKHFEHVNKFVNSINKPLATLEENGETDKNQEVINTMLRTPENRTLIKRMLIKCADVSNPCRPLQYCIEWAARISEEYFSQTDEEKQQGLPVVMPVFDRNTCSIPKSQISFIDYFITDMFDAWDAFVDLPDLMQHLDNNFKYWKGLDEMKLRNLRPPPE
# [4] = biological target: T4, PDE8B1 (Homo sapiens, UniProt O95263); test: PDE enzymatic profile; assay type: biochemical
# T4 construct: purchased Scottish Biochem (Glasgow, Scotland, UK)
# T4 sequence (O95263 whole entry): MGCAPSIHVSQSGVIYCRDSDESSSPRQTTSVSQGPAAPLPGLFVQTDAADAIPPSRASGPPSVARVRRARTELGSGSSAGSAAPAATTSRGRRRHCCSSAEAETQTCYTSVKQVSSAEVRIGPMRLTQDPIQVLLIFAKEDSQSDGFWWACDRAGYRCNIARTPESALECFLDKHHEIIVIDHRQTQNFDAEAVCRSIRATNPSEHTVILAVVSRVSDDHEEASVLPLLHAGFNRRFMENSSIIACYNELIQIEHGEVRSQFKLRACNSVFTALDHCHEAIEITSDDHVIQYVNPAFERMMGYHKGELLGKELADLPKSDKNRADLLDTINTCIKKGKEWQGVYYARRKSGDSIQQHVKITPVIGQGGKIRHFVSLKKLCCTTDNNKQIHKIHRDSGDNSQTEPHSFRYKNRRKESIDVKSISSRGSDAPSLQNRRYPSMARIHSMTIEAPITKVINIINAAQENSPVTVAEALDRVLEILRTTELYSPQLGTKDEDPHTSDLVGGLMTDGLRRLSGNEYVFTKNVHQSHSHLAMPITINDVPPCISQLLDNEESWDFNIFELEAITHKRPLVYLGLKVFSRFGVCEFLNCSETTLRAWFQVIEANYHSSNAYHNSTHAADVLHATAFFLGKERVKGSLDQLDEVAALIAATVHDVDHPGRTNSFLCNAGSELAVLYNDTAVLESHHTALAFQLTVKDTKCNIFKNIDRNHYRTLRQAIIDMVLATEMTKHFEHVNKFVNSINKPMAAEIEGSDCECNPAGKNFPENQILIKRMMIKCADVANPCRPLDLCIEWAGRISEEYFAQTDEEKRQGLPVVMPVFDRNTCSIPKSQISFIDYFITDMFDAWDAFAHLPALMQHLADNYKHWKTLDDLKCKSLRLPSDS
# [5] = test system: HTLA cells; set-up: method as in PMID 27560284; conditions: 100 μM; same experimental conditions; cited from earlier work
# [6] = set-up: method as in PMID 27560284; conditions: parent compound; cited from earlier work
# [7] = cited from earlier work
# [8] = biological target: T5, PDE1B (Homo sapiens, UniProt Q01064); test: PDE enzymatic profile; assay type: biochemical
# T5 construct: purchased Scottish Biochem (Glasgow, Scotland, UK)
# T5 sequence (Q01064 whole entry): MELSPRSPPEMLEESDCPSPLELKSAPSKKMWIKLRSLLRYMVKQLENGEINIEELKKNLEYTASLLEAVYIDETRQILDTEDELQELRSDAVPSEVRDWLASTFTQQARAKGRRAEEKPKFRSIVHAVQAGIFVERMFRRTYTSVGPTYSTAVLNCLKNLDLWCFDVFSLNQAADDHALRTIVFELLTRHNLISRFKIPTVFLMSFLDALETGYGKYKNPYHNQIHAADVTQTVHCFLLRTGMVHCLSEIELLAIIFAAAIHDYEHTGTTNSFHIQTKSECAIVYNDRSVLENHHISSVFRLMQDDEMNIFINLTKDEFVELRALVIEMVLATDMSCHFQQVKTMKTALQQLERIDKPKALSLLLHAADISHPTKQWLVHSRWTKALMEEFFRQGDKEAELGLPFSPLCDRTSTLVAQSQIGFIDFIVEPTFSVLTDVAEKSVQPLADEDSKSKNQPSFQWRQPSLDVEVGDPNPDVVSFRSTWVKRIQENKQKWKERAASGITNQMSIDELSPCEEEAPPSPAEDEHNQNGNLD
# [9] = biological target: T6, PDE5A1 (Homo sapiens, UniProt O76074); test: PDE enzymatic profile; assay type: biochemical
# T6 construct: purchased Scottish Biochem (Glasgow, Scotland, UK)
# [10] = biological target: T7, PDE2A3 (Homo sapiens, UniProt O00408); test: PDE enzymatic profile; assay type: biochemical; conditions: read-out: GEBR-32a % inhibition, recombinant human PDE expressed in baculovirus, NI = no inhibition
# T7 construct: purchased Scottish Biochem (Glasgow, Scotland, UK)
# [11] = biological target: T8, PDE4A1 (Homo sapiens, UniProt P27815); test: PDE enzymatic profile; assay type: biochemical; conditions: read-out: GEBR-32a % inhibition, recombinant human PDE expressed in baculovirus
# T8 construct: purchased Scottish Biochem (Glasgow, Scotland, UK); host or cells: baculovirus system
# [12] = biological target: T9, PDE4A4 (Homo sapiens, UniProt P27815); test: PDE enzymatic profile; assay type: biochemical; conditions: read-out: GEBR-32a % inhibition, recombinant human PDE expressed in baculovirus
# T9 construct: purchased Scottish Biochem (Glasgow, Scotland, UK); host or cells: baculovirus system
# [13] = biological target: T10, PDE4B1 (Homo sapiens, UniProt Q07343); test: PDE enzymatic profile; assay type: biochemical; conditions: read-out: GEBR-32a % inhibition, recombinant human PDE expressed in baculovirus
# T10 construct: purchased Scottish Biochem (Glasgow, Scotland, UK); host or cells: baculovirus system
# [14] = biological target: T11, PDE4B2 (Homo sapiens, UniProt Q07343); test: PDE enzymatic profile; assay type: biochemical; conditions: read-out: GEBR-32a % inhibition, recombinant human PDE expressed in baculovirus
# T11 construct: purchased Scottish Biochem (Glasgow, Scotland, UK); host or cells: baculovirus system
# [15] = biological target: T12, PDE4B3 (Homo sapiens, UniProt Q07343); test: PDE enzymatic profile; assay type: biochemical; conditions: read-out: GEBR-32a % inhibition, recombinant human PDE expressed in baculovirus
# T12 construct: purchased Scottish Biochem (Glasgow, Scotland, UK); host or cells: baculovirus system
# T12 sequence (Q07343 1-721 isoform Q07343-3): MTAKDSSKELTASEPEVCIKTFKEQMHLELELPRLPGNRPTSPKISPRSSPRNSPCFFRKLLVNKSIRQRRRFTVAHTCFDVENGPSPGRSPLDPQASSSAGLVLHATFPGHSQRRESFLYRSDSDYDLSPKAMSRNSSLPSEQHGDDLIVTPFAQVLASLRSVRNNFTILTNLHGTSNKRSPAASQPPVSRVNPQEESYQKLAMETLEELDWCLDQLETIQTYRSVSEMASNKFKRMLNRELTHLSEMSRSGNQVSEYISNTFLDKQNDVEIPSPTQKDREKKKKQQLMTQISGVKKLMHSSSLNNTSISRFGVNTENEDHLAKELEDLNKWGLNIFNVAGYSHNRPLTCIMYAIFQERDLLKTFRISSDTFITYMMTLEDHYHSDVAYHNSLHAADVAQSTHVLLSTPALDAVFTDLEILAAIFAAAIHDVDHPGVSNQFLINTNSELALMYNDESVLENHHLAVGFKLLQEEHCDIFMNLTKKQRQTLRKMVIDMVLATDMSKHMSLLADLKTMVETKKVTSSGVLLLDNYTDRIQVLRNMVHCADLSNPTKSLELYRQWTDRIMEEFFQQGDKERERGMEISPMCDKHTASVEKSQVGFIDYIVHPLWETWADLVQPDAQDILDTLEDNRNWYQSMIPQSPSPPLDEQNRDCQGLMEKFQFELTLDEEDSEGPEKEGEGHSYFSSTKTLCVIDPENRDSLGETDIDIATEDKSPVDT
# [16] = biological target: T13, PDE7A (Homo sapiens, UniProt Q13946); test: PDE enzymatic profile; assay type: biochemical
# T13 construct: purchased Scottish Biochem (Glasgow, Scotland, UK)
# T13 sequence (Q13946 whole entry): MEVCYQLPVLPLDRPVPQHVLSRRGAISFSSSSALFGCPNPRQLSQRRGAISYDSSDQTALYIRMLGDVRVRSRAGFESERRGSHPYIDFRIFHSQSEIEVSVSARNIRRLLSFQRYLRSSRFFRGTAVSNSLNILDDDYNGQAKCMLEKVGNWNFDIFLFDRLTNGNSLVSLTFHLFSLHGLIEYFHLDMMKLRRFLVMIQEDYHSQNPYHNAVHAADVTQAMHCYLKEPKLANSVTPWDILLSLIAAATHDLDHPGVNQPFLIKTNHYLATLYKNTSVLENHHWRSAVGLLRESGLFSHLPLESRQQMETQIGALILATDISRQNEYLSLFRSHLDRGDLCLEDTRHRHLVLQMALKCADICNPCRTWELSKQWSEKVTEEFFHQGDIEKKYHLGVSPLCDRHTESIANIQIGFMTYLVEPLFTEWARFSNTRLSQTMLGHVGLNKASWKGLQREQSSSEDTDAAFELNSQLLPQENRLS
# [17] = biological target: T14, PDE9A1 (Homo sapiens, UniProt O76083); test: PDE enzymatic profile; assay type: biochemical; conditions: read-out: GEBR-32a % inhibition, recombinant human PDE expressed in baculovirus, NI = no inhibition
# T14 construct: purchased Scottish Biochem (Glasgow, Scotland, UK)
# [18] = biological target: T15, PDE11A1 (Homo sapiens, UniProt Q9HCR9); test: PDE enzymatic profile; assay type: biochemical; conditions: read-out: GEBR-32a % inhibition, recombinant human PDE expressed in baculovirus, NI = no inhibition
# T15 construct: purchased Scottish Biochem (Glasgow, Scotland, UK)
# [19] = test system: HTLA cells; test: cAMP determination in cultured cells; assay type: cell-based, human; conditions: 100 μM
# Experimental: The cells used in this study (human neuroblastoma cell line HTLA-230, HTLA) were grown in Roswell Park Memorial Institute medium (RPMI), with 0.1 mM non-essential aminoacids and 10% fetal bovine serum. At the end of treatments, intracellular cAMP was measured with the DetectX® Direct Cyclic AMP Enzyme Immunoassay Kit (Arbor Assay, MI, USA), following the manufacturer’s protocol.
# (§1) Results from cells and slices are presented as fold increase and represent mean ± S.E.M. of the number of experiments reported in the figure legend. Normal distribution was evaluated by Kolmogorov–Smirnov test and then data have been analysed by one-way ANOVA followed by Newman-Keuls or Dunnett’s tests, as appropriate.
# [20] = test system: rat hippocampal slices; test: cAMP determination in hippocampal slices; assay type: cell-based; conditions: forskolin 0.1 μM
# Experimental: Hippocampal slices (400 μm thick) were obtained from adult Sprague Dawley rats using a McIlwain tissue chopper and pre-incubated in physiological medium[52] […] Finally, slices were left in hot medium (90 °C) for 15 min, sonicated and centrifuged at 10000 g for 15 min. The supernatant was used for cAMP determination, using the same kit as above, and the pellet for protein quantification.
# as §1
# [21] = test system: HTLA cells; test: Cytotoxicity, lactate dehydrogenase release; assay type: cell-based, human; conditions: 100 μM, 24 hours
# Experimental: (§2) At the end of the incubation period, lactate-dehydrogenase release was measured in conditioned media using the Cytoxicity Detection Kit^PLUS (Roche, Germany) according to manufacturer protocols.
# [22] = test system: HTLA cells; test: Genotoxicity, phosphorylation of histone H2A.X (Western blot); assay type: cell-based, human; conditions: 100 μM, 24 hours
# Experimental: as §2
# To evaluate genotoxicity, cells were processed for total protein extraction as described previously. Immunoblots were done according to standard methods, using the following antibodies: mouse monoclonal to gamma H2A.X (2F3, phospho S139) and rabbit polyclonal to Histone H2A.X (Abcam, UK); anti-mouse and anti-rabbit secondary antibodies coupled to horseradish peroxidase (GE Healthcare, UK). Proteins were visualized with an enzyme-linked chemiluminescence detection kit according to the manufacturer’s instructions (GE Healthcare). Chemiluminescence was monitored by exposure to films and signals were analyzed under non-saturating condition with an image densitometer (Bio-Rad, CA, USA).
# [23] = test system: mice; test: Ketamine/xylazine induced α2-adrenoceptor-mediated anaesthesia test (emetic-like effect); assay type: in vivo, mouse; conditions: 0.003–3 mg/kg s.c., adult mice
# Experimental: The outcome measurement was the total time the animals were anesthetized, measured from anaesthesia induction to the righting reflex (i.e. when mice were back on all four paws). In order to reduce the number of animals for experimentation and to get sufficient group sizes, the experiments were performed three times with 2 recovery days in between. […] Normal distribution of data was evaluated by Kolmogorov–Smirnov and one-way ANOVA was used to compare all conditions.
# [24] = Pharmacokinetic analysis, plasma and brain; assay type: in vivo; conditions: male, mouse
# Experimental: For blood analysis, 25 μL of plasma were transferred into a 1.5 mL Eppendorf tube and were added with 25 μL of methanol and 25 μL of internal standard (500 ng/mL voriconazole), followed by the addition of 100 μL methanol. As for brains, 100 mg of tissue were placed into a plastic tube and added with 500 μL of methanol to facilitate homogenization, which was carried out using a Fluko F6/10 superfine homogenizer for approximately 1 min. […] A 25 μL aliquot of the homogenized samples was transferred into an Eppendorf tube and added with 20 μL of internal standard (500 ng/mL voriconazole) followed by the addition of 100 μL of methanol. […] AUC0-t: the area under the plasma/brain concentration versus time curve from time 0 to the last measurable concentration was calculated by using the linear trapezoidal rule. Cmax: the maximum observed plasma concentration.
# [25] = test system: WT and Tg2576 mice; test: Y-maze continuous alternation task; assay type: in vivo, mouse
# Experimental: The apparatus was made of grey Plexiglas with three arms symmetrically placed together at a 120° angle. At the beginning of the trial, each mouse was placed in one of three arms (randomly divided and balanced) and was then allowed to freely explore the apparatus for 6 minutes. The number of entries into a different arm and the order was measured. An entry was only counted if all four paws of the animal were placed completely inside the arm. When a mouse visited all 3 arms consecutively, it made a triad. In between trials, the apparatus was cleaned with a 70% ethanol solution to avoid olfactory cues. […] Of note, there was no statistical difference between testing sessions (day effect; data not shown) and, therefore, both test sessions were pooled. To measure spatial working memory, the percentage of alternations was calculated by taking the number of triads and dividing it through the maximum possible alternations (total entries minus 2) and multiply this by 100. A score of 50% alternations is considered chance level and, therefore, a significant difference from 50% is indicative of functional working memory. Normal distribution of data was evaluated by Kolmogorov–Smirnov and one-way ANOVA was performed to evaluate differences between the conditions. For each condition, one-sample t-test was used for comparison versus the score of 50%.
# [26] = test system: aged WT and Tg2576 mice; test: Hippocampal long-term potentiation, fEPSP recordings in slices of chronically treated mice; assay type: in vivo, mouse; conditions: chronic 0.03 mg/kg for 23 days
# Experimental: Electrophysiological recordings have been carried out as previously described. […] A concentric bipolar platinum-iridium stimulation electrode and a low-resistance glass recording microelectrode filled with saline solution ([…]) were placed in CA1 stratum radiatum to record the extracellular field excitatory postsynaptic potential (fEPSP). Basal synaptic transmission was assayed by plotting the stimulus voltages against slopes of fEPSP.
# [27] = test system: mice; set-up: method as in PMID 21649644; conditions: 0.03 and 0.3 mg/kg; same experimental conditions; cited from earlier work
# [28] = Dipyridamole 50 μM, read-out: Comparator % inhibition
# [29] = read-out: GEBR-32a % inhibition
# [30] = read-out: GEBR-32a % inhibition, 10 μM, recombinant human PDE expressed in baculovirus
# [31] = sc, brain, 10 mg/kg s.c., BALB/c mice
# [32] = sc, plasma, 10 mg/kg s.c., BALB/c mice
# T1 sequence (Q9Y233 1-779 isoform Q9Y233-1): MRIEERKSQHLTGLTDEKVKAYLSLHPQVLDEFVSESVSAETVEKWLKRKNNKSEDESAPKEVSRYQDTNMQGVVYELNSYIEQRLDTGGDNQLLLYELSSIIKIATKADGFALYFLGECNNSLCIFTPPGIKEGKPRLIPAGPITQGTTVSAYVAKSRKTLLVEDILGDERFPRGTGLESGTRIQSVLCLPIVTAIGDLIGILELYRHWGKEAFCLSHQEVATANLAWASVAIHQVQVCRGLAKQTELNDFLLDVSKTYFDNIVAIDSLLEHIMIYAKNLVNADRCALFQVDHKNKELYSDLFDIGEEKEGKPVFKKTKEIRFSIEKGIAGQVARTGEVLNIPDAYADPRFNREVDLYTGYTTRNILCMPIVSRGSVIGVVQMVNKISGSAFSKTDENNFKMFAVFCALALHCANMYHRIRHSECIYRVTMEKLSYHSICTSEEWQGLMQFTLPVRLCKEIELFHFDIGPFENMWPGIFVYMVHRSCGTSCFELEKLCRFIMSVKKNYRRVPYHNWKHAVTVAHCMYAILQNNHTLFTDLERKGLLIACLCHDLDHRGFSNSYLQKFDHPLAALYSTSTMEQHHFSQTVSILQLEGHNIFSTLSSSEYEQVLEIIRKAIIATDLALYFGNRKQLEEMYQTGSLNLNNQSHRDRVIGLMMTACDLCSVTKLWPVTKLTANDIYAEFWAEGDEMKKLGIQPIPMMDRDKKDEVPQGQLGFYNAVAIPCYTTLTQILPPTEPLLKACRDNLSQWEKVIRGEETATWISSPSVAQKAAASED
smiles,measurement,setting,value
"COc1ccc(Cc2nccc3cc(OC)c(OC)cc23)cc1OC [Papaverine, reference compound]",inhibition at 1 µM,"[1]; Papaverine 1 μM, read-out: Comparator % inhibition",90.7%
"OCCN(CCO)c1nc(N2CCCCC2)c2nc(N(CCO)CCO)nc(N3CCCCC3)c2n1 [Dipyridamole, reference compound]",inhibition at 50 µM,[2]; [28],47.3%
same,inhibition at 50 µM,[3]; [28],64.4%
same,inhibition at 50 µM,[4]; [28],57.4%
COc1ccc(-c2ccn(CC(O)CN3CCOCC3)n2)cc1OC1CCCC1 (centres unmarked) [compound 8a],increase of the forskolin-induced elevation of cAMP in cultured cells,[5],4 fold
same,brain/plasma ratio,[6],0.76
O=C(Nc1c(Cl)cncc1Cl)c1ccc(OC(F)F)c(OCC2CC2)c1 [roflumilast],brain/plasma ratio,[7],1
"CCCc1nn(C)c2c(=O)[nH]c(-c3cc(S(=O)(=O)N4CCN(C)CC4)ccc3OCC)nc12 [Sildenafil, reference compound]",inhibition at 10 µM,"[8]; Sildenafil 10 μM, read-out: Comparator % inhibition",74.4%
same,inhibition at 0.1 µM,[9]; read-out: Comparator % inhibition,74.9%
OC(CN1CCOCC1)Cn1ccc(-c2ccc(OC(F)F)c(OC3CCCC3)c2)n1 (centres unmarked) [GEBR-32a],inhibition at 10 µM,[8]; [29],10.7%
same,inhibition at 10 µM,[10],< 0%
same,inhibition at 10 µM,[11],41%
same,inhibition at 10 µM,[12],11%
same,inhibition at 10 µM,[13],41.6%
same,inhibition at 10 µM,[14],26.3%
same,inhibition at 10 µM,[15],39.4%
same,inhibition at 10 µM,[9]; [30],4.97%
same,inhibition at 10 µM,"[16]; read-out: GEBR-32a % inhibition, 10 μM, recombinant human PDE expressed in baculovirus, NI = no inhibition",< 0%
same,inhibition at 10 µM,[2]; [30],8.61%
same,inhibition at 10 µM,[3]; [29],< 0%
same,inhibition at 10 µM,[4]; [30],23.5%
same,inhibition at 10 µM,[17],< 0%
same,inhibition at 10 µM,[1]; [29],< 0%
same,inhibition at 10 µM,[18],< 0%
same,increase of the forskolin-induced elevation of cAMP in cultured cells,[19]; forskolin 1 μM,12 fold
same,increase of cAMP with respect to controls,[19]; without forskolin,2.5 fold
same,EC50,"[20]; Rattus norvegicus, 0.1–100 μM, read-out: apparent EC50, increase of forskolin-induced cAMP production",1.8 µM
same,elevation of forskolin-induced cAMP production,[20]; highest concentration tested (100 μM),4 fold
same,"cytotoxicity, lactate dehydrogenase release",[21],did not produce any significant effect
same,"genotoxicity, phosphorylation of histone H2A.X",[22],did not produce any significant effect
same,duration of anaesthesia (emetic-like effect),[23],did not significantly influence the duration of anaesthesia
same,Tmax,"[24]; BALB/c, plasma and brain, subcutaneous, 10 mg/kg, absorption and distribution to the brain",20 min
same,half-life,"[24]; BALB/c, plasma and brain, subcutaneous, 10 mg/kg, elimination, read-out: half-life (converted)",~60 min
same,Kp,"[24]; in vivo, sc, 10 mg/kg s.c., BALB/c mice, read-out: AUC0-t Ratio (Brain/Plasma)",2.71
same,AUC(0-t),[24]; [31],2.33 µg·h/mL
same,Cmax,[24]; [31],2610 ng/g
same,Tmax,[24]; [31],19.8 min
same,half-life,"[24]; sc, brain, 10 mg/kg s.c., BALB/c mice, read-out: t1/2 (converted)",57 min
same,AUC(0-t),[24]; [32],0.861 µg·h/mL
same,Cmax,[24]; [32],0.993 µg/mL
same,Tmax,[24]; [32],19.8 min
same,half-life,"[24]; sc, plasma, 10 mg/kg s.c., BALB/c mice, read-out: t1/2 (converted)",57 min
same,"percentage of alternations, Y-maze","[25]; adult WT mice, administered 30 min before trial, data not shown",not further improved
same,"percentage of alternations, Y-maze","[25]; aged Tg2576 mice, acute 0.0003–0.3 mg/kg s.c. 30 min before trial",not able to induce any improvement
same,"percentage of alternations, Y-maze","[25]; aged Tg2576 mice, chronic 0.03 mg/kg for up to 23 days",alternations significantly higher than 50%
same,"percentage of alternations, Y-maze","[25]; aged WT mice, acute, all doses tested 0.0003–0.3 mg/kg s.c. 30 min before trial",significantly ameliorated the performance
same,hippocampal LTP (fEPSP),[26]; aged Tg2576 mice,rescue the LTP deficit
same,hippocampal LTP (fEPSP),[26]; aged WT mice,"clear, though not significant, enhancement of LTP"
COc1ccc(C2CNC(=O)C2)cc1OC1CCCC1 (centres unmarked) [Rolipram],duration of anaesthesia (emetic-like effect),[27],significantly shortened anaesthesia time
"Cc1ccc([N+](=O)[O-])cc1S(=O)(=O)N(C)C [BRL-50481, reference compound]",Comparator % inhibition,[16]; BRL-50481 10 μM,78.6 (BRL-50481 10 μM) %
